Source: patent US20260216139A1, “METHOD FOR TREATING NEUROLOGICAL DISEASES THROUGH GLIAL PRUNING REGULATION” (Fred Hutchinson Cancer Center, priority 2022, published 2026)

Tested on: C. elegans
Assay: Effects of exposure to drugs on glial pruning: number of engulfed AFD neuron fragments in AMsh glia
Assay type: in vivo
Conditions: for suppression of defects, judged by the number of engulfed fragments in glia: pdr-1 single or pdr-1; for number of engulfed fragments of neuron within glia: pdr-1 mutant animals, upon drug exposure
Experimental: C. elegans were cultured as known to one of skill in the art. Bristol N2 strain was used as wild type. For all experiments, animals were raised at 20° C. for at least two generations without starvation, picked as L4 larvae onto fresh plate, and assayed 1 day later unless otherwise noted. For analysis of glial engulfment, animals were crossed to the strain dnals13, an integrated transgene bearing gcy-23: GFP recombineered fosmid outcrossed to Bristol N2 four times. To control environmental variations, worms were raised from egg-lay in a humidity and temperature-controlled environment until imaging. Worms were staged at the L4 stage using vulval anatomy. Day 1 adult animals were staged at the L4 stage and then grown for approximately 24 more hours (unless otherwise stated) in the controlled environment. Worms were imaged and glial engulfment was analyzed as described in the methods below.
Worms were immobilized with 40 mM sodium azide. Images were collected on a Deltavision® Elite RoHS wide-field deconvolution system with Ultimate Focus® (GE), a PlanApo 60×/1.42 NA or OLY 100×/1.40 NA oil-immersion objective, and a DV Elite CMOS Camera. Images of the AFD puncta in the region of the AMsh were taken at 100× using FITC with 100% transmission and 0.0405 ms exposure with a reference image taken at 5% POL in the middle of the sample. For worms expressing an extrachromosomal array tagged with mCherry, images were also taken using an A594 filter with 0.02 ms exposure to ensure expression of the array in the cell of interest. Images were then deconvolved and cropped to 1024×1024 in the area of interest. Next, images were processed using FIJI®. All images were converted to 8-bit and brightness and contrast were set with a minimum of 0 and a maximum of 50. Next, a rectangle is drawn around the region of the AMsh adjacent to, but not including, the AFD cell body and excluding any area along the AFD process. Next, the image is cropped to this region, and the tool “3D Objects Counter” is run with the following settings: threshold=35; size min.=5 max.=7225848; exclude objects side. This number of puncta is then verified by eye and recorded.
Data and statistics were either graphed and analyzed using Prism9 or by using R. Statistical analysis in R was conducted using the open-source data visualization package ggplot2. Data is represented in a boxplot with each point representing the number of puncta engulfed within the cell body of one AMsh glia in a single worm. Dots represent the biological replicate in which the individual worm was imaged unless otherwise specified to represent genotype.
4 mL standard C. elegans nematode growth medium (NGM) was aliquoted into 35 mm Petri dishes and stored at 4 degrees Celsius. Plates were warmed to room temperature and seeded with 100 μL of OP50 and dried overnight. Plates were then spotted with 100 μL of diluted SP600125 (in DMSO), Apocynin (in DMSO), or EHop-016 (in DMSO) for a final concentration of 0.5% or 1% DMSO (as labeled) and a final concentration of the treatment drug of 50 μM (unless otherwise specified). Spot treatment was allowed to dry before L1 staged C. elegans were transferred onto the plate. Worms were then imaged approximately 2 days later. Worms were staged at this time by vulval anatomy, body size, and the presence or absence of eggs. […] At this time, worms were imaged, and glial engulfment levels were analyzed.

CCn1c2ccccc2c2cc(Nc3ccnc(NCCCN4CCOCC4)n3)ccc21 (racemic) [EHOP-016]
pruning (pdr-1, pink-1 double mutant animals, 10 μM): increased | pdr-1 defect (pruning) (pdr-1 lesion animals (FIG. 21C right), 10 μM): increased | suppression of defects, judged by the number of engulfed fragments in glia (pink-1 double mutant animals): did not suppress | pruning (wild type animals, 10 μM): increase

COc1cc(C(C)=O)ccc1O (racemic) [Apocynin, acetovanillone]
suppression of defects, judged by the number of engulfed fragments in glia (pink-1 double mutant animals): suppress

CO[C@H]1C[C@@H]2CC[C@@H](C)[C@@](O)(O2)C(=O)C(=O)N2CCCC[C@H]2C(=O)O[C@H]([C@H](C)C[C@@H]2CC[C@@H](O)[C@H](OC)C2)CC(=O)[C@H](C)/C=C(\C)[C@@H](O)[C@@H](OC)C(=O)[C@H](C)C[C@H](C)/C=C/C=C/C=C/1C [rapamycin]
number of engulfed fragments of neuron within glia: no change

O=[N+]([O-])c1ccc(O)c([N+](=O)[O-])c1 [DNP]
number of engulfed fragments of neuron within glia: no change

CC(C)C[C@@H](C=O)NC(=O)[C@H](CC(C)C)NC(=O)[C@H](CC(C)C)NC(=O)OCc1ccccc1 (racemic) [MG-132]
number of engulfed fragments of neuron within glia: reduction
